Assay results: ChEMBL document CHEMBL3862012, “Methylene versus carbonyl bridge in the structure of new tubulin polymerization inhibitors with tricyclic A-rings” (Bioorg Med Chem, 2016)

How the values were obtained:
[1] = Cytotoxicity against human Hs 578T cells assessed as growth inhibition at 10 uM after 48 hrs by SRB assay relative to control; format: functional; conditions: read-out: GI
[2] = Cytotoxicity against human MDA-MB-468 cells assessed as growth inhibition at 10 uM after 48 hrs by SRB assay relative to control; format: functional; conditions: MDA-MB-468, 48 h, read-out: GI
[3] = Cytotoxicity against human MALME-3M cells assessed as growth inhibition at 10 uM after 48 hrs by SRB assay relative to control; format: functional; conditions: read-out: GI
[4] = Cytotoxicity against human OVCAR5 cells assessed as growth inhibition at 10 uM after 48 hrs by SRB assay relative to control; format: functional; conditions: OVCAR-5, 48 h, read-out: GI
[5] = Cytotoxicity against human SF268 cells assessed as growth inhibition at 10 uM after 48 hrs by SRB assay relative to control; format: functional; conditions: SF-268, 48 h, read-out: GI
[6] = Cytotoxicity against human NCI-H460 cells assessed as growth inhibition at 10 uM after 48 hrs by SRB assay relative to control; format: functional; conditions: NCI-H460, 48 h, read-out: GI
Ovis aries = organism: Ovis aries; experiment: Inhibition of sheep brain tubulin polymerization at 100 uM by DAPI staining-based fluorimetric method relative to control
[7] = Cytotoxicity against human A498 cells assessed as growth inhibition at 10 uM after 48 hrs by SRB assay relative to control; format: functional; conditions: A498, 48 h, read-out: GI
[8] = Cytotoxicity against human 786-0 cells assessed as growth inhibition at 10 uM after 48 hrs by SRB assay relative to control; format: functional; conditions: 786-0, 48 h, read-out: GI
[9] = Cytotoxicity against human UO31 cells assessed as growth inhibition at 10 uM after 48 hrs by SRB assay relative to control; format: functional; conditions: UO-31, 48 h, read-out: GI
[10] = Cytotoxicity against human HT-29 cells assessed as growth inhibition at 10 uM after 48 hrs by SRB assay relative to control; format: functional; conditions: HT-29, 48 h, read-out: GI
[11] = Cytotoxicity against human EKVX cells assessed as growth inhibition at 10 uM after 48 hrs by SRB assay relative to control; format: functional; conditions: read-out: GI
[12] = Cytotoxicity against human Caki1 cells assessed as growth inhibition at 10 uM after 48 hrs by SRB assay relative to control; format: functional; conditions: CAKI-1, 48 h, read-out: GI
[13] = Cytotoxicity against human SF295 cells assessed as growth inhibition at 10 uM after 48 hrs by SRB assay relative to control; format: functional; conditions: SF-295, 48 h, read-out: GI
[14] = Cytotoxicity against human NCI-H322M cells assessed as growth inhibition at 10 uM after 48 hrs by SRB assay relative to control; format: functional; conditions: read-out: GI
[15] = Cytotoxicity against human HOP92 cells assessed as growth inhibition at 10 uM after 48 hrs by SRB assay relative to control; format: functional; conditions: HOP-92, 48 h, read-out: GI
[16] = Cytotoxicity against human SK-MEL-5 cells assessed as growth inhibition after 48 hrs by SRB assay; format: functional; conditions: SK-MEL-5, 48 h
[17] = Cytotoxicity against human BT549 cells assessed as growth inhibition after 48 hrs by SRB assay; format: functional; conditions: BT-549, 48 h
[18] = Cytotoxicity against human HCC2998 cells assessed as growth inhibition after 48 hrs by SRB assay; format: functional; conditions: HCC 2998, 48 h
[19] = Cytotoxicity against human DU145 cells assessed as growth inhibition after 48 hrs by SRB assay; format: functional; conditions: DU-145, 48 h
[20] = Inhibition of sheep brain tubulin polymerization by DAPI staining-based fluorimetric method; parameters: species or system Ovis aries
[21] = Cytotoxicity against human SF268 cells assessed as growth inhibition after 48 hrs by SRB assay; format: functional; conditions: SF-268, 48 h
[22] = Cytotoxicity against human Hs 578T cells assessed as growth inhibition after 48 hrs by SRB assay; format: functional
[23] = Cytotoxicity against human K562 cells assessed as growth inhibition after 48 hrs by SRB assay; format: functional; conditions: K562, 48 h
[24] = Cytotoxicity against human SR cells assessed as growth inhibition after 48 hrs by SRB assay; format: functional
[25] = Cytotoxicity against human NCI-H460 cells assessed as growth inhibition after 48 hrs by SRB assay; format: functional; conditions: NCI-H460, 48 h
[26] = Cytotoxicity against human OVCAR3 cells assessed as growth inhibition after 48 hrs by SRB assay; format: functional; conditions: OVCAR-3, 48 h
[27] = Cytotoxicity against human ACHN cells assessed as growth inhibition after 48 hrs by SRB assay; format: functional
[28] = Cytotoxicity against human OVCAR5 cells assessed as growth inhibition after 48 hrs by SRB assay; format: functional; conditions: OVCAR-5, 48 h
[29] = Cytotoxicity against human SN12C cells assessed as growth inhibition after 48 hrs by SRB assay; format: functional
[30] = Cytotoxicity against human SK-MEL-28 cells assessed as growth inhibition after 48 hrs by SRB assay; format: functional; conditions: SK-MEL-28, 48 h
[31] = Cytotoxicity against human IGROV1 cells assessed as growth inhibition after 48 hrs by SRB assay; format: functional; conditions: IGROV-1, 48 h
[32] = Cytotoxicity against human COLO205 cells assessed as growth inhibition after 48 hrs by SRB assay; format: functional; conditions: COLO 205, 48 h
[33] = Cytotoxicity against human NCI-H522 cells assessed as growth inhibition after 48 hrs by SRB assay; format: functional; conditions: NCI-H522, 48 h
[34] = Cytotoxicity against human NCI-H226 cells assessed as growth inhibition at 10 uM after 48 hrs by SRB assay relative to control; format: functional; conditions: NCI-H226, 48 h, read-out: GI
[35] = Cytotoxicity against human SKOV3 cells assessed as growth inhibition after 48 hrs by SRB assay; format: functional; conditions: SK-OV-3, 48 h
[36] = Cytotoxicity against human SW620 cells assessed as growth inhibition after 48 hrs by SRB assay; format: functional; conditions: SW-620, 48 h
[37] = Cytotoxicity against human NCI-ADR-RES cells assessed as growth inhibition after 48 hrs by SRB assay; format: functional
[38] = Cytotoxicity against human LOXIMVI cells assessed as growth inhibition after 48 hrs by SRB assay; format: functional; conditions: LOX IMVI
[39] = Cytotoxicity against human HCT15 cells assessed as growth inhibition after 48 hrs by SRB assay; format: functional; conditions: HCT-15, 48 h
[40] = Cytotoxicity against human RXF393 cells assessed as growth inhibition after 48 hrs by SRB assay; format: functional; conditions: RXF 393, 48 h
[41] = Cytotoxicity against human SK-MEL-2 cells assessed as growth inhibition after 48 hrs by SRB assay; format: functional; conditions: SK-MEL-2, 48 h
[42] = Cytotoxicity against human M14 cells assessed as growth inhibition after 48 hrs by SRB assay; format: functional; conditions: M14, 48 h
[43] = Cytotoxicity against human SK-MEL-5 cells assessed as growth inhibition at 10 uM after 48 hrs by SRB assay relative to control; format: functional; conditions: SK-MEL-5, 48 h, read-out: GI
[44] = Cytotoxicity against human KM12 cells assessed as growth inhibition after 48 hrs by SRB assay; format: functional; conditions: KM12, 48 h

COc1ccc(CN2c3ccccc3Oc3ccccc32)cc1F gave an inhibition of growth at 10 µM [1] of 38%, an inhibition of growth at 10 µM [2] of 56% and an inhibition of growth at 10 µM [3] of 41%. For the same compound, the inhibition of growth at 10 µM [4] was 13%, the inhibition of growth at 10 µM [5] was 15% and the inhibition of growth at 10 µM [6] was 52%. For the same compound, the inhibition (Ovis aries) was 1%, the inhibition of growth at 10 µM [7] was 46% and the inhibition of growth at 10 µM [8] was 21%. It also gave an inhibition of growth at 10 µM [9] of 47%, an inhibition of growth at 10 µM [10] of 89% and an inhibition of growth at 10 µM [11] of 39%. It also gave an inhibition of growth at 10 µM [12] of 41%, an inhibition of growth at 10 µM [13] of 67% and an inhibition of growth at 10 µM [14] of 8%. The inhibition of growth at 10 µM [15] was 33%.
In the case of COc1ccc(CN2c3ccccc3Sc3ccccc32)cc1O, the inhibition of growth at 10 µM [1] is reported as 67%, the GI50 [16] is reported as 0.438 µM and the GI50 [17] is reported as 0.773 µM. For the same compound, the inhibition of growth at 10 µM [2] was 91%, the GI50 [18] was 0.422 µM and the GI50 [19] was 0.374 µM. The IC50 [20] was 9.2 µM, the GI50 [21] was 0.966 µM and the inhibition of growth at 10 µM [3] was 28%. The GI50 [22] was 0.933 µM, the GI50 [23] was 0.365 µM and the inhibition of growth at 10 µM [4] was 14%. For the same compound, the GI50 [24] was 0.407 µM, the GI50 [25] was 0.444 µM and the inhibition of growth at 10 µM [5] was 54%. For the same compound, the GI50 [26] was 0.304 µM, the GI50 [27] was 1.56 µM and the GI50 [28] was 12.7 µM. The inhibition of growth at 10 µM [6] was 90%, the GI50 [29] was 1.29 µM and the GI50 [30] was 14.4 µM. For the same compound, the GI50 [31] was 1.93 µM, the inhibition (Ovis aries) was 64% and the GI50 [32] was 0.789 µM. The GI50 [33] was 0.241 µM, the inhibition of growth at 10 µM [7] was 24% and the inhibition of growth at 10 µM [34] was 29%. It also gave an inhibition of growth at 10 µM [8] of 57%, a GI50 [35] of 0.521 µM and an inhibition of growth at 10 µM [9] of 76%. It also gave a GI50 [36] of 0.504 µM, a GI50 [37] of 0.291 µM and a GI50 [38] of 0.71 µM. For the same compound, the inhibition of growth at 10 µM [10] was 91%, the inhibition of growth at 10 µM [11] was 63% and the GI50 [39] was 0.369 µM. For the same compound, the GI50 [40] was 0.338 µM, the inhibition of growth at 10 µM [12] was 64% and the inhibition of growth at 10 µM [13] was 96%. For the same compound, the inhibition of growth at 10 µM [14] was 67%, the inhibition of growth at 10 µM [15] was 50% and the GI50 [41] was 0.333 µM. For the same compound, the GI50 [42] was 0.383 µM.
Compound COc1ccc(CN2c3ccccc3CCc3ccccc32)cc1F has an inhibition of growth at 10 µM [1] of 70%, a GI50 [16] of 0.522 µM and a GI50 [17] of 0.746 µM. For the same compound, the inhibition of growth at 10 µM [2] was 96%, the GI50 [18] was 8.9 µM and the inhibition of growth at 10 µM [43] was 80%. For the same compound, the GI50 [19] was 0.481 µM, the IC50 [20] was 6.4 µM and the GI50 [21] was 0.66 µM. It also gave an inhibition of growth at 10 µM [3] of 16%, a GI50 [22] of 0.487 µM and a GI50 [23] of 0.402 µM. It also gave an inhibition of growth at 10 µM [4] of 59%, a GI50 [24] of 0.463 µM and a GI50 [25] of 0.419 µM. For the same compound, the inhibition of growth at 10 µM [5] was 61%, the GI50 [26] was 0.285 µM and the GI50 [27] was 0.604 µM. The GI50 [28] was 1.9 µM, the inhibition of growth at 10 µM [6] was 93% and the GI50 [29] was 1.95 µM. The GI50 [30] was 0.82 µM, the GI50 [31] was 1.57 µM and the GI50 [44] was 0.387 µM. For the same compound, the inhibition (Ovis aries) was 58%, the GI50 [32] was 0.335 µM and the GI50 [33] was 0.609 µM. It also gave an inhibition of growth at 10 µM [7] of 100%, an inhibition of growth at 10 µM [34] of 47% and an inhibition of growth at 10 µM [8] of 66%. For the same compound, the GI50 [35] was 0.471 µM, the inhibition of growth at 10 µM [9] was 57% and the GI50 [36] was 0.386 µM. It also gave a GI50 [37] of 0.456 µM, a GI50 [38] of 0.725 µM and an inhibition of growth at 10 µM [10] of 98%. For the same compound, the inhibition of growth at 10 µM [11] was 59%, the GI50 [39] was 0.428 µM and the GI50 [40] was 0.312 µM. It also gave an inhibition of growth at 10 µM [12] of 70%, an inhibition of growth at 10 µM [13] of 88% and an inhibition of growth at 10 µM [14] of 42%. For the same compound, the inhibition of growth at 10 µM [15] was 64% and the GI50 [42] was 0.354 µM.
